Experimental data taken from US12390419B2, “Formulations of (R)-2-amino-3-phenylpropyl carbamate” (AXSOME MALTA LTD., priority 2016, dated 2025).
≈ marks a conversion by molar mass, not a printed value.

Experiments:
[1] = Solubility of APC in 0.2M phosphate buffers; format: physicochemical
[2] = Dissolution of coated APC tablets in three media (apparatus 1 basket, 100 rpm, 900 ml, 37° C.); format: physicochemical
Description: A substantial concern was the effect of media pH. Although APC will be developed as an immediate release product, FDA guidances require comparison of profiles in three media including pH 6.8 (representing intestinal pH). […] The media used were 0.1 N HCl pH 1.2, acetate buffer pH 4.5, and phosphate buffer pH 6.8. The dissolution study was carried using 12 tablets per dose, apparatus 1 (basket), 900 ml media volume, 37° C., 100 rpm. The tablets were coated with Opadry white polymer system.

NC(=O)OC[C@H](N)Cc1ccccc1 [APC, (R)-2-amino-3-phenylpropyl carbamate]
solubility ([1]; 0.2M phosphate buffer, pH 6.8, aqueous buffer, thermodynamic from solid): 26 mg/mL (≈ 134 mM) | solubility ([1]; aqueous buffer, thermodynamic from solid, 0.2M phosphate buffer pH 5.33, pH after equilibration 4.25): 542 mg/mL (≈ 2790 mM) | solubility ([1]; aqueous buffer, thermodynamic from solid, 0.2M phosphate buffer pH 5.95, pH after equilibration 4.78): 525 mg/mL (≈ 2710 mM) | solubility ([1]; aqueous buffer, thermodynamic from solid, 0.2M phosphate buffer pH 6.97, pH after equilibration 6.76): 26.6 mg/mL (≈ 137 mM) | solubility ([1]; aqueous buffer, thermodynamic from solid, 0.2M phosphate buffer pH 8.02, pH after equilibration 7.47): 22.5 mg/mL (≈ 116 mM) | solubility ([1]; aqueous buffer, thermodynamic from solid, 0.2M phosphate buffer pH 8.99, pH after equilibration 7.55): 22.4 mg/mL (≈ 115 mM) | solubility ([1]; pH 4.22, thermodynamic from solid, pH of buffer N/A (water), pH after equilibration 4.22): 534 mg/mL (≈ 2750 mM) | solubility ([1]; water or acidic media, water, thermodynamic from solid): 530 mg/mL (≈ 2730 mM) | Percent release ([2]; 37.5 mg tablet, pH 1.2, 5 min): 71.9% | Percent release ([2]; 37.5 mg tablet, pH 1.2, 10 min): 99.3% | Percent release ([2]; 37.5 mg tablet, pH 1.2, 15 min): 99.7% | Percent release ([2]; 37.5 mg tablet, pH 4.5, 5 min): 76.8% | Percent release ([2]; 37.5 mg tablet, pH 4.5, 10 min): 101.8% | Percent release ([2]; 37.5 mg tablet, pH 4.5, 15 min): 102.1% | Percent release ([2]; 37.5 mg tablet, pH 6.8, 5 min): 69.6% | Percent release ([2]; 37.5 mg tablet, pH 6.8, 10 min): 100.2% | Percent release ([2]; 37.5 mg tablet, pH 6.8, 15 min): 100.7% | Percent release ([2]; 75 mg tablet, pH 1.2, 5 min): 62.9% | Percent release ([2]; 75 mg tablet, pH 1.2, 10 min): 98.7% | Percent release ([2]; 75 mg tablet, pH 1.2, 15 min): 99.4% | Percent release ([2]; 75 mg tablet, pH 4.5, 5 min): 53.9% | Percent release ([2]; 75 mg tablet, pH 4.5, 10 min): 100.8% | Percent release ([2]; 75 mg tablet, pH 4.5, 15 min): 102.5% | Percent release ([2]; 75 mg tablet, pH 6.8, 5 min): 57.6% | Percent release ([2]; 75 mg tablet, pH 6.8, 10 min): 99.4% | Percent release ([2]; 75 mg tablet, pH 6.8, 15 min): 100.2% | Percent release ([2]; 150 mg tablet, pH 1.2, 5 min): 46.8% | Percent release ([2]; 150 mg tablet, pH 1.2, 10 min): 96.9% | Percent release ([2]; 150 mg tablet, pH 1.2, 15 min): 98.4% | Percent release ([2]; 150 mg tablet, pH 4.5, 5 min): 42.6% | Percent release ([2]; 150 mg tablet, pH 4.5, 10 min): 97.7% | Percent release ([2]; 150 mg tablet, pH 4.5, 15 min): 100.4% | Percent release ([2]; 150 mg tablet, pH 6.8, 5 min): 42.4% | Percent release ([2]; 150 mg tablet, pH 6.8, 10 min): 97.4% | Percent release ([2]; 150 mg tablet, pH 6.8, 15 min): 100.7% | Percent release ([2]; 300 mg tablet, pH 1.2, 5 min): 35.0% | Percent release ([2]; 300 mg tablet, pH 1.2, 10 min): 91.2% | Percent release ([2]; 300 mg tablet, pH 1.2, 15 min): 99.5% | Percent release ([2]; 300 mg tablet, pH 4.5, 5 min): 30.0% | Percent release ([2]; 300 mg tablet, pH 4.5, 10 min): 89.1% | Percent release ([2]; 300 mg tablet, pH 4.5, 15 min): 99.8% | Percent release ([2]; 300 mg tablet, pH 6.8, 5 min): 31.6% | Percent release ([2]; 300 mg tablet, pH 6.8, 10 min): 89.9% | Percent release ([2]; 300 mg tablet, pH 6.8, 15 min): 100.2%
